Here are results for 4 molecules from EP4105218A1, “SUBSTITUTED PYRROLO[2,3-D] PYRIMIDINES, THEIR PREPARATION AND THEIR THERAPEUTIC APPLICATION” (SANOFI, priority 2021, dated 2022).

One assay concerns the target LRRK2(human) WT (Homo sapiens, UniProt Q5S007). In words: LRRK2 WT assay (assay A), Lanthascreen TR-FRET. The class given is biochemical. The conditions noted are these: assay A (values without "*"): full-length LRRK2 wild type, 500uM ATP.
For the next assay, the target named is T1, LRRK2-G2019S(human) (Homo sapiens, UniProt Q5S007, G2019S).
T1 construct: DYKDDDDK (FLAG)
In words: LRRK2-G2019S Kinase activity assay (Lanthascreen TR-FRET). Type of assay: biochemical. The conditions noted are these: full-length LRRK2 G2019S, LRRKtide substrate, 1.1mM ATP. The procedure: LRRK2-G2019S Kinase activity assay: The measurements of the activities were made using a LRRK2-G2019S(human) Kinase activity assay as described hereunder. The potency of compounds was evaluated in vitro using the Lanthascreen® technology (ThermoFisher Scientific).
The biological assay requires the […]-tagged full-length LRRK2 G2019S protein, the fluorescent peptide substrate named LRRKtide or ERM ([…] supplied by PolyPeptide Group), the ATP substrate, and different concentrations of test compounds. In a typical experiment, the reaction assay buffer contains 50mM Tris pH8.2, 1mM EGTA, 2.5mM MgCl2, 0.05% Triton X100, 0.15% BSA and 1mM DTT. The detection of the assay is performed using 1nM Terbium labeled anti-phospho-LRRKtide (ThermoFisher Scientific) diluted in a TR-FRET buffer (ThermoFisher Scientific).
The experimental procedure was performed with Greiner small volume® 384-well. The assay is started by a pre-incubation step of full-length LRRK2 G2019S mutant protein with reaction assay buffer and a dilution series of test compound for at least 30 minutes at room temperature. The working solution of compounds was prepared in a separate Greiner microplate.
The kinase reaction was initiated by addition of the ATP/LRRKtide substrate mix diluted in the reaction assay buffer. The reaction mix was incubated for at least 10 minutes at room temperature (initial velocity conditions). Reaction was stopped by addition of Terbium labeled anti-phospho-LRRKtide diluted into the detection buffer supplemented with EDTA (ThermoFisher Scientific). Plates are incubated for at least 30 minutes at room temperature and read on an Envision™ multimode plate reader (PerkinElmer) with LanthaScreen™. The TR-FRET 520:495 nm emission ratio was calculated and used to determine the IC50 value from a dose response curve fit to the 4-parameter logistic equation. The activity with respect to LRRK2 kinase in this test is given by the concentration which inhibits 50% of the LRRK2 activity (or IC50) in nM.

Structures are written as SMILES.

T1 sequence (Q5S007 whole entry G2019S): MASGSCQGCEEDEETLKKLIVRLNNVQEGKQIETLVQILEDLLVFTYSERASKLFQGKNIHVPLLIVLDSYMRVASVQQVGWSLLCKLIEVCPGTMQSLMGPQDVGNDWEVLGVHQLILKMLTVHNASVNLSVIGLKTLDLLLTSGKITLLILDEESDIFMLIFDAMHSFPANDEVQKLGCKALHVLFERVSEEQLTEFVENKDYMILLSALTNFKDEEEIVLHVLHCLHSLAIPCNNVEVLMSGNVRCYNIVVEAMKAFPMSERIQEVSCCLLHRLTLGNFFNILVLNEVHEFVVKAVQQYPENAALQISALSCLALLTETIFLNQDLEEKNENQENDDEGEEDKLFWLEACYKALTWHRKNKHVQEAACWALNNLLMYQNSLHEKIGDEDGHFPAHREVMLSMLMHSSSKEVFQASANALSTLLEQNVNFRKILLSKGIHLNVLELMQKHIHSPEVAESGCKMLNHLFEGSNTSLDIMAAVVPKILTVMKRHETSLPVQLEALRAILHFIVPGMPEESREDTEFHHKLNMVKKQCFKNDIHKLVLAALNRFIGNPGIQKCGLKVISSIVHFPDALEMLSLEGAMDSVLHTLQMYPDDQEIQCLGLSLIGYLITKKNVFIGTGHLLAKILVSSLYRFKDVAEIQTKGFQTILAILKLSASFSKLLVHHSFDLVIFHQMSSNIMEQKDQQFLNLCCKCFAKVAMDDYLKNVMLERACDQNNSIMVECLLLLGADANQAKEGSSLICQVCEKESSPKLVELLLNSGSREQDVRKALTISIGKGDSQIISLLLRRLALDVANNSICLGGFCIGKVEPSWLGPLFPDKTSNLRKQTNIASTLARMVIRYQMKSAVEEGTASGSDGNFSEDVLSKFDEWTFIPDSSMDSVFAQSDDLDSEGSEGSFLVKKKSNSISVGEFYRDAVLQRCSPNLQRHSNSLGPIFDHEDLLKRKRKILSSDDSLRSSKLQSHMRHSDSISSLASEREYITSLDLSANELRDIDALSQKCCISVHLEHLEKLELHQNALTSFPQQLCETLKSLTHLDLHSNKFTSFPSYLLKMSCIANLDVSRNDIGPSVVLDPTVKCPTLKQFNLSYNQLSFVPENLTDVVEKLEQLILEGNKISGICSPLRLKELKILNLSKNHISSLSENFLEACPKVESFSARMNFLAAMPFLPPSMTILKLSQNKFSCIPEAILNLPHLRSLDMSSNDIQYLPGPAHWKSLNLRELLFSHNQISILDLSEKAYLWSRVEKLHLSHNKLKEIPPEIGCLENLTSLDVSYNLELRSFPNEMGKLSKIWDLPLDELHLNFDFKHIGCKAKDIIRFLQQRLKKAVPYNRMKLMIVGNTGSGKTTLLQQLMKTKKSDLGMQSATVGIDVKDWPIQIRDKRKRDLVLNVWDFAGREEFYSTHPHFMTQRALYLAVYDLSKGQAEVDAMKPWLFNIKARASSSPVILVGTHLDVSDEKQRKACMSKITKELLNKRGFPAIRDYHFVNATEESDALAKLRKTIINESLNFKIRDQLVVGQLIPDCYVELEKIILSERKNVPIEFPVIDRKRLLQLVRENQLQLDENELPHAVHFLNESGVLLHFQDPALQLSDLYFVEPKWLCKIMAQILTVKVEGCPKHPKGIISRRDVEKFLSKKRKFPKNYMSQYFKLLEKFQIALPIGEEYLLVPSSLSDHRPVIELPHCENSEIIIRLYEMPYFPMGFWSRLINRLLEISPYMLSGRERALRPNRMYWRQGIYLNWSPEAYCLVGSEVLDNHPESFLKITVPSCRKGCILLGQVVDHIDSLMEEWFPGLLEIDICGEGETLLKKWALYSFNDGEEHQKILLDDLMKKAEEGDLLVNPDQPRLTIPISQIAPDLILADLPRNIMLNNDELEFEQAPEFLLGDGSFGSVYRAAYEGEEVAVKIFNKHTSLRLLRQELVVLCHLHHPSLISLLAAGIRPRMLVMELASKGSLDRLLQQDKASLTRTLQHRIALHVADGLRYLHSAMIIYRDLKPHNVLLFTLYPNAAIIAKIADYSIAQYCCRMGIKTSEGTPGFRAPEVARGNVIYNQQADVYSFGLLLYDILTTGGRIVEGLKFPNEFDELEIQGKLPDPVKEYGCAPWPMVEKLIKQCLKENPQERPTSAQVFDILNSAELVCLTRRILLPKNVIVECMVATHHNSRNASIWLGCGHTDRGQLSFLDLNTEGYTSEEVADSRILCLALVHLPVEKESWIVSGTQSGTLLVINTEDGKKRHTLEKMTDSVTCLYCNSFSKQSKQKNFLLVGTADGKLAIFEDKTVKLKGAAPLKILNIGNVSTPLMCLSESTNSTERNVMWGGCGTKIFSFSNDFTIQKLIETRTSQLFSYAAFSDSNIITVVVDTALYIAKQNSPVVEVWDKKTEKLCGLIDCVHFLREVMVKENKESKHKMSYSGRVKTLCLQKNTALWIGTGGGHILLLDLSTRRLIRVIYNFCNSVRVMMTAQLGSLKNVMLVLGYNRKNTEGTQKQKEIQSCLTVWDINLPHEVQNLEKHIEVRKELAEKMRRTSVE
LRRK2(human) WT, sequence (Q5S007 whole entry): as the sequence (Q5S007 whole entry G2019S) above, with S2019G counted along it

In the case of `CC(=O)N1CC(Oc2nn(C)cc2Nc2ncc3cc(C#N)n([C@H]4COC[C@@H]4C)c3n2)C1(C)C` (single isomer, unassigned) [Example 18], the IC50 on LRRK2(human) WT and against LRRK2-G2019S(human) was 2 nM each time. In the case of `[2H]C([2H])([2H])n1cc(Nc2ncc3cc(C#N)n(C(C)COC)c3n2)c(OC2COC2C)n1` (single isomer, unassigned) [Example 89, 7-[(1S)-2-methoxy-1-methyl-ethyl]-2-[[3-[(2S,3R)-2-methyloxetan-3-yl]oxy-1-(methyl-d3)pyrazol-4-yl]amino]pyrrolo[2,3-d]pyrimidine-6-carbonitrile or 7-[(1S)-2-methoxy-1-methyl-ethyl]-2-[[3-[(2R,3S)-2-methyloxetan-3-yl]oxy-1-(methyl-d3)pyrazol-4-yl]amino]pyrrolo[2,3-d]pyrimidine-6-carbonitrile], at LRRK2-G2019S(human), the midpoint of inhibition, the IC50, lay at 5 nM.

On LRRK2-G2019S(human), `COCC(C)n1c(C#N)cc2cnc(Nc3cn(C)nc3OC3COC3C)nc21` (single isomer, unassigned) [Example 87, 7-[(1S)-2-methoxy-1-methyl-ethyl]-2-[[1-methyl-3-[(2S, 3R)-2-methyloxetan-3-yl]oxy-pyrazol-4-yl]amino]pyrrolo[2,3-d]pyrimidine-6-carbonitrile or 7-[(1S)-2-methoxy-1-methyl-ethyl]-2-[[1-methyl-3-[(2R, 3S)-2-methyloxetan-3-yl]oxy-pyrazol-4-yl]amino]pyrrolo[2,3-d]pyrimidine-6-carbonitrile] gave an IC50 of 5 nM. For the molecule `CC(=O)N1CC(Oc2nn(C)cc2Nc2ncc3cc(C#N)n([C@H]4COC[C@@H]4C)c3n2)C1(C)C` (single isomer, unassigned) [Example 17], the concentration for half-maximal inhibition (IC50) at LRRK2(human) WT and against LRRK2-G2019S(human) was 3 nM in each case.
